Results taken from patent US9670227B2, “Thienopyrimidine derivatives, a process for their preparation and pharmaceutical compositions containing them” (LES LABORATOIRES SERVIER, priority 2013, dated 2017).
Read-outs that look alike come from different tables or passages of the source.

Tests used:
[1] = target: Mcl-1 protein (UniProtKB primary accession number: Q07820) (Homo sapiens, UniProt Q07820); assay: Inhibition of Mcl-1 by fluorescence polarisation, Method 1; format: binding; settings: read-out: IC50 (M) Mcl-1 FP
Chain of Mcl-1 protein (Q07820 whole entry): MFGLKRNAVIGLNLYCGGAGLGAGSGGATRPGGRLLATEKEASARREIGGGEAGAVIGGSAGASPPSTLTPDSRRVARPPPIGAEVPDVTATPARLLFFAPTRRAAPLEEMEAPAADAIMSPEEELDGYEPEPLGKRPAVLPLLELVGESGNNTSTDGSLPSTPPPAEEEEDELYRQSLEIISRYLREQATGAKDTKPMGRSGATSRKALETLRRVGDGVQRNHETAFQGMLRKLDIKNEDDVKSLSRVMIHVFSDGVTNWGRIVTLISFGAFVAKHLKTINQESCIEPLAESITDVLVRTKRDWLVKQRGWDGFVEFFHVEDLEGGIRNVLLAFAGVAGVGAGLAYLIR
In short: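 Fluorescence polarisation competition with an 11-point compound dilution series (final DMSO 5%). Mcl-1 protein at 5 nM and fluorescein-labelled ligand at 1 nM (final) in 10 mM HEPES, 150 mM NaCl, 0.05% Tween 20, pH 7.4.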

[2] = test system: H929 multiple myeloma tumour line; assay: In vitro cytotoxicity, Microculture Tetrazolium Assay; format: cell-based; settings: H929 cells, 48 hours exposure, read-out: IC50 (μM) MTT H929
Procedure: The cytotoxicity studies were carried out on the H929 multiple myeloma tumour line.
The cells are distributed onto microplates and exposed to the test compounds for 48 hours.

[3] = fluorescence polarisation test, Method 2 values are underlined in the patent (underlining not visible here)
[4] = Homo sapiens, NCI-H929, 48 h, MTT
[5] = fluorescence polarisation, Method 1, or Method 2

| Compound | IC50 [1, 3] [M] | IC50 [2, 4] [µM] | further results |
| --- | --- | --- | --- |
| CCCCNC(=O)COc1ccccc1CC(Oc1ncnc2sc(-c3ccco3)c(-c3ccc(OCCN4CCN(C)CC4)c(Cl)c3C)c12)C(=O)O [Example 220, (2R)-3-{2-[2-(butylamino)-2-oxoethoxy]phenyl}-2-{[(5Sa)-5-{3-chloro-2-methyl-4-[2-(4-methylpiperazin-1-yl)ethoxy]phenyl}-6-(furan-2-yl)thieno[2,3-d]pyrimidin-4-yl]oxy}propanoic acid] | 9e-09 | 0.277 |  |
| Cc1c(-c2c(-c3ccco3)sc3ncnc(OC(Cc4ccccc4OC4CCCC4)C(=O)O)c23)ccc(OCCN2CCN(C)CC2)c1Cl [Example 212, (2R)-2-{[(5Sa)-5-{3-chloro-2-methyl-4-[2-(4-methylpiperazin-1-yl)ethoxy]phenyl}-6-(furan-2-yl)thieno[2,3-d]pyrimidin-4-yl]oxy}-3-[2-(cyclopentyloxy)phenyl]propanoic acid] | 1.6e-08 | 0.616 |  |
| CCc1sc2ncnc(OC(Cc3ccccc3)C(=O)O)c2c1-c1ccc(OCC(=O)N2CCCC2)c(Cl)c1C [Example 391, (2R)-2-[((5Sa)-5-{3-chloro-2-methyl-4-[2-oxo-2-(pyrrolidin-1-yl)ethoxy]phenyl}-6-ethylthieno[2,3-d]pyrimidin-4-yl)oxy]-3-phenylpropanoic acid] | 3.7e-08 | 22.1 |  |
| COc1ccccc1-c1nccc(COc2ccccc2CC(Oc2ncnc3sc(-c4ccc(F)cc4)c(-c4ccc(OCCN5CCN(C)CC5)c(Cl)c4C)c23)C(=O)OCCN(C)C)n1 [Example 813, 2-(dimethylamino)ethyl (2R)-2-{[(5Sa)-5-{3-chloro-2-methyl-4-[2-(4-methylpiperazin-1-yl)ethoxy]phenyl}-6-(4-fluorophenyl)thieno[2,3-d]pyrimidin-4-yl]oxy}-3-(2-{[2-(2-methoxyphenyl)pyrimidin-4-yl]methoxy}phenyl)propanoate] |  |  | IC50 ([1]; fluorescence polarisation test, Method 1, or Method 2 where the value is underlined (underlining not visible)): 5.47e-09 M; IC50 ([2]; Homo sapiens, NCI-H929, 48 h, cell viability): 0.011 µM |
| COc1ccccc1CC(Oc1ncnc2sc(-c3cc(F)cc(Cl)c3)c(-c3ccc(OCCN4CCN(C)CC4)c(Cl)c3C)c12)C(=O)O [Example 526, (2R)-2-{[6-(3-chloro-5-fluorophenyl)-(5Sa)-5-{3-chloro-2-methyl-4-[2-(4-methylpiperazin-1-yl)ethoxy]phenyl}thieno[2,3-d]pyrimidin-4-yl]oxy}-3-(2-methoxyphenyl)propanoic acid] |  | 0.835 | IC50 [1, 5]: 4.1e-09 M |
| COCCOc1cc(COc2ccccc2CC(Oc2ncnc3sc(-c4ccc(F)cc4)c(-c4ccc(OCCN5CCN(C)CC5)c(Cl)c4C)c23)C(=O)O)ccn1 [Example 22, (2R)-2-{[(5Sa)-5-{3-chloro-2-methyl-4-[2-(4-methylpiperazin-1-yl)ethoxy]phenyl}-6-(4-fluorophenyl)thieno[2,3-d]pyrimidin-4-yl]oxy}-3-(2-{[2-(2-methoxyethoxy)pyridin-4-yl]methoxy}phenyl)propanoic acid] | 8.3e-09 | 0.092 |  |
| COc1cc(-c2sc3ncnc(OC(Cc4ccccc4OCc4cnccn4)C(=O)O)c3c2-c2ccc(OCCN3CCN(C)CC3)c(Cl)c2C)ccc1F [Example 386, (2R)-2-{[(5Sa)-5-{3-chloro-2-methyl-4-[2-(4-methylpiperazin-1-yl)ethoxy]phenyl}-6-(4-fluoro-3-methoxyphenyl)thieno[2,3-d]pyrimidin-4-yl]oxy}-3-[2-(pyrazin-2-ylmethoxy)phenyl]propanoic acid] | 1e-08 | 0.075 |  |
| COCCN1CCN(CCOc2ccc(-c3c(-c4ccco4)sc4ncnc(OC(Cc5ccccc5OC)C(=O)O)c34)c(C)c2Cl)CC1 [Example 330, (2R)-2-{[(5Sa)-5-(3-chloro-4-{2-[4-(2-methoxyethyl)piperazin-1-yl]ethoxy}-2-methylphenyl)-6-(furan-2-yl)thieno[2,3-d]pyrimidin-4-yl]oxy}-3-(2-methoxyphenyl)propanoic acid] | 8.3e-09 | 1.17 |  |
| CC#Cc1sc2ncnc(OC(Cc3ccccc3OC)C(=O)O)c2c1-c1ccc(OCCN2CCCC2)c(Cl)c1C [Example 468, (2R)-2-{[(5Sa)-5-{3-chloro-2-methyl-4-[2-(pyrrolidin-1-yl)ethoxy]phenyl}-6-(prop-1-yn-1-yl)thieno[2,3-d]pyrimidin-4-yl]oxy}-3-(2-methoxyphenyl)propanoic acid] |  | 2.02 | IC50 [1, 5]: 8.6e-09 M |
| CCc1sc2ncnc(OC(Cc3ccccc3)C(=O)O)c2c1-c1ccc(OCC(=O)N(C)C)c(Cl)c1C [Example 390, (2R)-2-[((5Sa)-5-{3-chloro-4-[2-(dimethylamino)-2-oxoethoxy]-2-methylphenyl}-6-ethylthieno[2,3-d]pyrimidin-4-yl)oxy]-3-phenylpropanoic acid] | 4e-08 | 20 |  |
| CCc1sc2ncnc(OC(Cc3ccccc3)C(=O)O)c2c1-c1cc(N)c(OCCN2CCN(C)CC2)c(Cl)c1C [Example 437, (2R)-2-[((5Sa)-5-{5-amino-3-chloro-2-methyl-4-[2-(4-methylpiperazin-1-yl)ethoxy]phenyl}-6-ethylthieno[2,3-d]pyrimidin-4-yl)oxy]-3-phenylpropanoic acid] |  | 20.3 | IC50 [1, 5]: 4.5e-08 M |
| Cc1c(-c2c(-c3ccco3)sc3ncnc(OC(Cc4ccccc4OCc4cc(-c5ccco5)nn4C)C(=O)O)c23)ccc(OCCN2CCN(C)CC2)c1Cl [Example 228, (2R)-2-{[(5Sa)-5-{3-chloro-2-methyl-4-[2-(4-methylpiperazin-1-yl)ethoxy]phenyl}-6-(furan-2-yl)thieno[2,3-d]pyrimidin-4-yl]oxy}-3-(2-{[3-(furan-2-yl)-1-methyl-1H-pyrazol-5-yl]methoxy}phenyl)propanoic acid] | 2.2e-08 | 0.166 |  |
| COc1ccccc1CC(Oc1ncnc2sc(-c3ccc(F)c(OCC(F)(F)F)c3)c(-c3ccc(OCCN4CCN(C)CC4)c(Cl)c3C)c12)C(=O)O [Example 535, (2R)-2-[(5Sa)-5-{3-chloro-2-methyl-4-[2-(4-methylpiperazin-1-yl)ethoxy]phenyl}-6-[4-fluoro-3-(2,2,2-trifluoroethoxy)phenyl]thieno[2,3-d]pyrimidin-4-yl)oxy]-3-(2-methoxyphenyl)propanoic acid] |  | 1.84 | IC50 [1, 5]: 1.3e-07 M |
| COc1ccccc1CC(Oc1ncnc2sc(-c3ccco3)c(-c3ccc(OC4CCNC4)c(Cl)c3C)c12)C(=O)O (single isomer, unassigned) [Example 306, (2R)-2-({(5Sa)-5-[3-chloro-2-methyl-4-((3R or S)-pyrrolidin-3-yloxy)phenyl]-6-(furan-2-yl)thieno[2,3-d]pyrimidin-4-yl}oxy)-3-(2-methoxyphenyl)propanoic acid] | 1.4e-08 |  | IC50 ([2]; MTT): 1.12 µM |
| Cc1c(-c2c(-c3ccc(F)cc3)sc3ncnc(OC(Cc4ccccc4OCc4ccnc(CC5CC5)n4)C(=O)O)c23)ccc(OCCN2CCN(C)CC2)c1Cl [Example 39, (2R)-2-{[(5Sa)-5-{3-chloro-2-methyl-4-[2-(4-methylpiperazin-1-yl)ethoxy]phenyl}-6-(4-fluorophenyl)thieno[2,3-d]pyrimidin-4-yl]oxy}-3-(2-{[2-(cyclopropylmethyl)pyrimidin-4-yl]methoxy}phenyl)propanoic acid] | 4.8e-09 | 0.015 |  |
| Cc1c(-c2c(-c3ccc(F)cc3)sc3ncnc(OC(Cc4ccccc4OCc4ccnn4CC4CC4)C(=O)O)c23)ccc(OCCN2CCN(C)CC2)c1Cl [Example 78, (2R)-2-{[(5Sa)-5-{3-chloro-2-methyl-4-[2-(4-methylpiperazin-1-yl)ethoxy]phenyl}-6-(4-fluorophenyl)thieno[2,3-d]pyrimidin-4-yl]oxy}-3-(2-{[1-(cyclopropylmethyl)-1H-pyrazol-5-yl]methoxy}phenyl)propanoic acid] | 6.6e-09 | 0.033 |  |
| Cc1c(-c2c(-c3ccco3)sc3ncnc(OC(Cc4ccccc4OCc4cnnn4Cc4ccccc4)C(=O)O)c23)ccc(OCCN2CCN(C)CC2)c1Cl [Example 295, (2R)-3-{2-[(1-benzyl-1H-1,2,3-triazol-5-yl)methoxy]phenyl}-2-{[(5Sa)-5-{3-chloro-2-methyl-4-[2-(4-methylpiperazin-1-yl)ethoxy]phenyl}-6-(furan-2-yl)thieno[2,3-d]pyrimidin-4-yl]oxy}propanoic acid] | 4.7e-09 | 0.021 |  |
| CC#Cc1sc2ncnc(OC(Cc3ccccc3OC)C(=O)O)c2c1-c1ccc(OCCN(C(C)C)C(C)C)c(Cl)c1C [Example 466, (2R)-2-{[(5Sa)-5-(3-chloro-4-{2-[di(propan-2-yl)amino]ethoxy}-2-methylphenyl)-6-(prop-1-yn-1-yl)thieno[2,3-d]pyrimidin-4-yl]oxy}-3-(2-methoxyphenyl)propanoic acid] |  | 3.35 | IC50 [1, 5]: 3.9e-08 M |
| Cc1c(-c2c(-c3ccc(F)o3)sc3ncnc(OC(Cc4ccccc4OCc4ccncn4)C(=O)O)c23)ccc(OCCN2CCN(C)CC2)c1Cl [Example 179, (2R)-2-{[(5Sa)-5-{3-chloro-2-methyl-4-[2-(4-methylpiperazin-1-yl)ethoxy]phenyl}-6-(5-fluorofuran-2-yl)thieno[2,3-d]pyrimidin-4-yl]oxy}-3-[2-(pyrimidin-4-ylmethoxy)phenyl]propanoic acid] | 5e-09 | 0.03 |  |
| COCCn1nncc1COc1ccccc1CC(Oc1ncnc2sc(-c3ccc(F)cc3)c(-c3ccc(OCCN4CCN(C)CC4)c(Cl)c3C)c12)C(=O)O [Example 97, (2R)-2-{[(5Sa)-5-{3-chloro-2-methyl-4-[2-(4-methylpiperazin-1-yl)ethoxy]phenyl}-6-(4-fluorophenyl)thieno[2,3-d]pyrimidin-4-yl]oxy}-3-(2-{[1-(2-methoxyethyl)-1H-1,2,3-triazol-5-yl]methoxy}phenyl)propanoic acid] | 3.3e-09 | 0.075 |  |
